Laboratory results published in the supplement of paper PMC10307832.

What was measured:
Assay in all cases: relative viability (nuclei count vs DMSO), 5 days (fraction); higher = more cells survive
IPA-3 + Olaparib = compound: C1=CC=C2C(=C1)C=CC(=C2SSC3=C(C=CC4=CC=CC=C43)O)O [IPA-3] + O=C(c1cc(Cc2n[nH]c(=O)c3ccccc23)ccc1F)N1CCN(C(=O)C2CC2)CC1 [Olaparib] (partner 8 µM)
Procedure, shortened: (§1)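 Relative viability is defined as nuclei in treated wells over nuclei in vehicle wells. Duplicate plates were run and medians reported. Lung cancer cell lines in 1536-well plates were dosed by pin tool one day after seeding, with one drug or with a fixed anchor-drug dose plus five library-drug doses (not always all listed) in √10 steps, and nuclei were counted after 5 days.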

Doramapimod + Phenformin = compound: Cc1ccc(-n2nc(C(C)(C)C)cc2NC(=O)Nc2ccc(OCCN3CCOCC3)c3ccccc23)cc1 [Doramapimod] + N=C(N)NC(=N)NCCc1ccccc1 [Phenformin] (partner 250 µM)
Procedure, shortened: as §1

Doramapimod + Pemetrexed = compound: Cc1ccc(-n2nc(C(C)(C)C)cc2NC(=O)Nc2ccc(OCCN3CCOCC3)c3ccccc23)cc1 [Doramapimod] + Nc1nc2[nH]cc(CCc3ccc(C(=O)N[C@@H](CCC(=O)O)C(=O)O)cc3)c2c(=O)[nH]1 [Pemetrexed] (partner 0.2 µM)
Procedure, shortened: as §1

Doramapimod + Olaparib = compound: Cc1ccc(-n2nc(C(C)(C)C)cc2NC(=O)Nc2ccc(OCCN3CCOCC3)c3ccccc23)cc1 [Doramapimod] + O=C(c1cc(Cc2n[nH]c(=O)c3ccccc23)ccc1F)N1CCN(C(=O)C2CC2)CC1 [Olaparib] (partner 8 µM)
Procedure, shortened: as §1

| Cell Line | relative viability (IPA-3 + Olaparib; first compound 0.2 µM) | relative viability (IPA-3 + Olaparib; first compound 0.6325 µM) | relative viability (IPA-3 + Olaparib; first compound 2 µM) | relative viability (IPA-3 + Olaparib; first compound 6.325 µM) | relative viability (IPA-3 + Olaparib; first compound 20 µM) | relative viability (Doramapimod + Phenformin; first compound 0.02 µM) | relative viability (Doramapimod + Phenformin; first compound 0.06325 µM) | relative viability (Doramapimod + Phenformin; first compound 0.2 µM) | relative viability (Doramapimod + Phenformin; first compound 0.6325 µM) | relative viability (Doramapimod + Phenformin; first compound 2 µM) | relative viability (Doramapimod + Pemetrexed; first compound 0.02 µM) | relative viability (Doramapimod + Pemetrexed; first compound 0.06325 µM) | relative viability (Doramapimod + Pemetrexed; first compound 0.2 µM) | relative viability (Doramapimod + Pemetrexed; first compound 0.6325 µM) | relative viability (Doramapimod + Pemetrexed; first compound 2 µM) | relative viability (Doramapimod + Olaparib; first compound 0.02 µM) | relative viability (Doramapimod + Olaparib; first compound 0.06325 µM) | relative viability (Doramapimod + Olaparib; first compound 0.2 µM) | relative viability (Doramapimod + Olaparib; first compound 0.6325 µM) | relative viability (Doramapimod + Olaparib; first compound 2 µM) |
| --- | --- | --- | --- | --- | --- | --- | --- | --- | --- | --- | --- | --- | --- | --- | --- | --- | --- | --- | --- | --- |
| PC-3 [JPC-3] | 1.11 | 1.08 | 1.28 | 1.05 | 1.13 | 0.506 | 0.475 | 0.474 | 0.502 | 0.453 | 1.27 | 1.37 | 1.24 | 0.933 | 1.03 | 1.3 | 1.16 | 1.22 | 1.33 | 1.14 |
| CAL-12T | 0.749 | 0.693 | 0.72 | 0.668 | 0.678 | 0.552 | 0.593 | 0.621 | 0.625 | 0.479 | 1.02 | 1.08 | 1.25 | 1.22 | 0.947 | 0.724 | 0.711 | 0.68 | 0.758 | 0.609 |
| COR-L 105 | 0.757 | 0.622 | 0.663 | 0.755 | 0.665 | 0.513 | 0.461 | 0.443 | 0.619 | 0.453 | 1.21 | 1.05 | 0.995 | 1.31 | 0.951 | 0.59 | 0.727 | 0.707 | 0.824 | 0.602 |
| NCI-H2347 | 0.568 | 0.486 | 0.565 | 0.592 | 0.612 | 0.429 | – | 0.429 | 0.386 | 0.398 | 0.42 | 0.443 | 0.444 | 0.436 | 0.376 | 0.618 | 0.641 | 0.546 | 0.575 | 0.53 |
| NCI-H2126 | 1.05 | 0.886 | 0.877 | 0.875 | 1.06 | 0.527 | 0.526 | 0.505 | 0.496 | 0.489 | 0.69 | 0.667 | 0.605 | 0.667 | 0.642 | 0.768 | 0.925 | 0.989 | 0.962 | 0.94 |
| NCI-H838 | 0.904 | 0.723 | 0.776 | 0.667 | 0.735 | 0.607 | 0.577 | 0.654 | 0.665 | 0.595 | 0.238 | 0.252 | 0.276 | 0.263 | 0.246 | 0.794 | 0.833 | 0.811 | 0.873 | 0.737 |
| SK-LU-1 | 0.536 | 0.456 | 0.494 | 0.389 | 0.466 | 0.613 | 0.516 | 0.542 | 0.61 | 0.46 | 1 | 0.937 | 0.964 | 0.863 | 0.946 | 0.487 | 0.43 | 0.39 | 0.503 | 0.388 |
| NCI-H2085 | 0.785 | 0.759 | 0.816 | 0.768 | 0.883 | 0.758 | 0.623 | 0.592 | 0.705 | 0.661 | 0.938 | 0.972 | 0.926 | 1.07 | 0.657 | 0.886 | 0.844 | 0.756 | 0.871 | 0.823 |
